Drawing on patent US10208074B2, “Pyrazole compounds and method for making and using the compounds” (Rigel Pharmaceuticals, Inc., priority 2015, dated 2019), this text covers EC50 for 20 compounds.

One experiment relates to IL-23 (p19/p40). The experiment in a line: IL23-p19 ELISA, Dendritic, LPS (compound screening using DC cells). The format is cell-based, Human. The settings on record: PBMC-derived DC cells, IFNγ primed, LPS 1 μg/ml, 18 hours, 10 pt, read-out: IL23-p19 ELISA, Dendritic, LPS, 10 pt, EC50. The gist of the method:
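IL-23 in supernatants quantified by sandwich ELISA (anti-p19 capture, biotinylated anti-p40 detection, chemiluminescent readout) after 18 h LPS (1 μg/ml) stimulation. Cells were monocyte-derived DCs (GM-CSF/IL-4, 7 d), IFNγ-primed 24 h and given compound 1 h before LPS; viability by CellTiter Glo.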
For orientation: In an ELISA, binding on a coated surface is turned into a signal by an enzyme label.

The subject of the next experiment is IL-23p19. Put plainly: LPS induced IL23p19 in THP-1 cells (with IFNγ primed) assay. In kind it is cell-based, Human. The settings on record: THP-1 cells, IFNγ primed, LPS 1 ug/mL, 18 hours, 10 pt, read-out: IL23-p19 ELISA, THP1-IFNy, LPS, 10 pt EC50. The gist of the method: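 Readout is secreted IL-23p19, quantified by chemiluminescent sandwich ELISA after 18 h LPS (1 ug/mL) stimulation of THP-1 cells that had been IFNγ-primed (50 ng/mL, ~18 h) and given compound 1 h beforehand at 37 °C. EC50 derived by curve fit; cytotoxicity tracked with Cell Titer Glo.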

Counter-ions that a name gives are not always drawn. Like-named read-outs stand apart in the source and are kept apart here.

With `CCN(CC)CCn1cc(NC(=O)c2csc(-c3cn[nH]c3)n2)c(-c2ccccn2)n1` [II-49, N-(1-(2-(diethylamino)ethyl)-3-(pyridin-2-yl)-1H-pyrazol-4-yl)-2-(1H-pyrazol-4-yl)thiazole-4-carboxamide], the EC50 in the experiment on IL-23 (p19/p40) was determined as 0.0812 µM; in the experiment on IL-23p19, 0.238 µM.

With `O=C(Nc1c[nH]nc1-c1ccccn1)c1csc(-c2cn[nH]c2)n1` [II-32, 2-(1H-pyrazol-4-yl)-N-(3-(pyridin-2-yl)-1H-pyrazol-4-yl)thiazole-4-carboxamide formic acid salt], the EC50 in the experiment on IL-23 (p19/p40) (Homo sapiens, 18 h) came to 0.191 µM; in the experiment on IL-23p19 (Homo sapiens, THP-1, 18 h), 0.361 µM.

In the case of `O=C(Nc1c[nH]nc1-c1ccccn1)c1ccc(-c2cn[nH]c2)o1` [Compound I-47, 5-(1H-pyrazol-4-yl)-N-(3-(pyridin-2-yl)-1H-pyrazol-4-yl)furan-2-carboxamide], the EC50 with IL-23 (p19/p40) (Homo sapiens, 18 h) is 0.327 µM; with IL-23p19 (Homo sapiens, THP-1, 18 h) it was 0.392 µM.

For the compound `O=C(Nc1cn(CC2(CO)COC2)nc1-c1ccccn1)c1csc(-c2cn[nH]c2)n1` [II-47, N-(1-((3-(hydroxymethyl)oxetan-3-yl)methyl)-3-(pyridin-2-yl)-1H-pyrazol-4-yl)-2-(1H-pyrazol-4-yl)thiazole-4-carboxamide], the EC50 in the experiment on IL-23 (p19/p40) (Homo sapiens, 18 h) amounted to 3.21 µM; in the experiment with IL-23p19 (Homo sapiens, THP-1, 18 h), 1.17 µM.

In the case of `COc1ccc(Cn2cc(-c3nc(C(=O)Nc4cn(C5CC(OC)C5)nc4-c4ccccn4)cs3)cn2)cc1` (stereo not shown) [II-51, 2-(1-(4-methoxybenzyl)-1H-pyrazol-4-yl)-N-(1-(3-methoxycyclobutyl)-3-(pyridin-2-yl)-1H-pyrazol-4-yl)thiazole-4-carboxamide], the EC50 came out at 26.6 µM with IL-23 (p19/p40) (Homo sapiens, 18 h) and 3.61 µM with IL-23p19 (Homo sapiens, THP-1, 18 h).

`CCOCCn1cc(NC(=O)c2ccc(-c3cnn(C)c3)o2)c(-c2ccccn2)n1` [Compound I-45, N-(1-(2-ethoxyethyl)-3-(pyridin-2-yl)-1H-pyrazol-4-yl)-5-(1-methyl-1H-pyrazol-4-yl)furan-2-carboxamide formate]: the EC50 in the experiment on IL-23 (p19/p40) (Homo sapiens, 18 h) is 5.45 µM; with IL-23p19 (Homo sapiens, THP-1, 18 h), 1.08 µM.

For `COCCOCCn1cc(NC(=O)c2ccc(-c3c[nH]nc3C)o2)c(-c2ccccn2)n1` [Compound I-18, N-(1-(2-(2-methoxyethoxy)ethyl)-3-(pyridin-2-yl)-1H-pyrazol-4-yl)-5-(3-methyl-1H-pyrazol-4-yl)furan-2-carboxamide], the EC50 in the experiment on IL-23 (p19/p40) (Homo sapiens, 18 h) turned out to be 1.2 µM; with IL-23p19 (Homo sapiens, THP-1, 18 h) it was 0.514 µM.

As for `COC1CC(n2cc(NC(=O)c3ccc(-c4cn[nH]c4)o3)c(-c3ccccn3)n2)C1` (stereo not shown) [Compound I-75, N-(1-((1s,3s)-3-methoxycyclobutyl)-3-(pyridin-2-yl)-1H-pyrazol-4-yl)-5-(1H-pyrazol-4-yl)furan-2-carboxamide formate], the values for the 50% effective concentration (EC50) in the experiment with IL-23 (p19/p40) and in the experiment with IL-23p19 were 0.0195 µM and 0.102 µM, respectively.

As to `CC(C)[C@H](NC(=O)OC(C)(C)C)C(=O)n1cc(-c2nc(C(=O)Nc3cn(C)nc3-c3ccccn3)cs2)cn1` [II-3, tert-butyl (S)-(3-methyl-1-(4-(4-((1-methyl-3-(pyridin-2-yl)-1H-pyrazol-4-yl)carbamoyl)thiazol-2-yl)-1H-pyrazol-1-yl)-1-oxobutan-2-yl)carbamate], the EC50 in the experiment with IL-23 (p19/p40) (Homo sapiens, 18 h) was 0.371 µM; in the experiment on IL-23p19 (Homo sapiens, THP-1, 18 h), 0.198 µM.

Take `CCOCCn1cc(NC(=O)c2ccc(-c3cn[nH]c3)o2)c(-c2ccccn2)n1` [Compound I-38, N-(1-(2-ethoxyethyl)-3-(pyridin-2-yl)-1H-pyrazol-4-yl)-5-(1H-pyrazol-4-yl)furan-2-carboxamide]: the EC50 worked out at 0.0582 µM with IL-23 (p19/p40) and 0.172 µM with IL-23p19.

On to `CCOCCn1cc(NC(=O)c2ccc(-c3c[nH]nc3C)o2)c(-c2ccccn2)n1` [Compound I-56, N-(1-(2-ethoxyethyl)-3-(pyridin-2-yl)-1H-pyrazol-4-yl)-5-(3-methyl-1H-pyrazol-4-yl)furan-2-carboxamide formate], for which the EC50 in the experiment with IL-23 (p19/p40) (Homo sapiens, 18 h) came to 7.72 µM; in the experiment with IL-23p19 (Homo sapiens, THP-1, 18 h), 0.156 µM.

As for `COC1CC(n2cc(NC(=O)c3csc(-c4cn[nH]c4)n3)c(-c3ccccn3)n2)C1` (stereo not shown) [II-57, N-{1-(3-Methoxycyclobutyl)-3-(pyridine-2-yl)-1H-pyrazol-4-yl}-2-(1H-pyrazol-4-yl)thiazole-4-carboxamide], the EC50 in the experiment on IL-23 (p19/p40) (Homo sapiens, 18 h) came to 0.0854 µM; with IL-23p19 (Homo sapiens, THP-1, 18 h), 0.0418 µM.

In the case of `CN1CC(n2cc(NC(=O)c3ccc(-c4cn[nH]c4)o3)c(-c3ccccn3)n2)C1` [Compound I-101, N-{1-(1-Methylazetidin-3-yl)-3-(pyridine-2-yl)-1H-pyrazol-4-yl}-5-(1H-pyrazol-4-yl)furan-2-carboxamide, formate salt], the EC50 in the experiment on IL-23 (p19/p40) (Homo sapiens, 18 h) stood at 0.0501 µM; in the experiment on IL-23p19 (Homo sapiens, THP-1, 18 h), 0.0143 µM.

Take `O=C(Nc1cn(C2CC(F)(F)C2)nc1-c1ccccn1)c1csc(-c2cn[nH]c2)n1` [II-134, N-(1-(3,3-difluorocyclobutyl)-3-(pyridin-2-yl)-1H-pyrazol-4-yl)-2-(1H-pyrazol-4-yl)thiazole-4-carboxamide]: the EC50 with IL-23 (p19/p40) (Homo sapiens, 18 h) was determined as 0.225 µM; in the experiment on IL-23p19 (Homo sapiens, THP-1, 18 h), 0.102 µM.

In the case of `O=C(Nc1cn([C@H]2CC[C@H](O)C2)nc1-c1ccccn1)c1ccc(-c2cn[nH]c2)o1` [Compound I-136, N-(1-((1S,3S)-3-hydroxycyclopentyl)-3-(pyridin-2-yl)-1H-pyrazol-4-yl)-5-(1H-pyrazol-4-yl)furan-2-carboxamide formate], the EC50 in the experiment on IL-23 (p19/p40) (Homo sapiens, 18 h) was 0.0878 µM; in the experiment on IL-23p19 (Homo sapiens, THP-1, 18 h), 0.0448 µM.

With `CCO[C@H]1C[C@@H](n2cc(NC(=O)c3csc(-c4cnn(COP(=O)(O)O)c4)n3)c(-c3ccccn3)n2)C1` [II-85, (4-(4-((1-((1,3-cis)-3-ethoxycyclobutyl)-3-(pyridin-2-yl)-1H-pyrazol-4-yl)carbamoyl)thiazol-2-yl)-1H-pyrazol-1-yl)methyl phosphate triethylamine salt], the half-maximal effective concentration (EC50) was 0.287 µM in the experiment with IL-23 (p19/p40) and 0.0499 µM in the experiment on IL-23p19.

As for `O=C(Nc1cn([C@H]2C[C@@H](O)C2)nc1-c1cccc(F)n1)c1csc(-c2cn[nH]c2)n1` [II-172, N-(3-(6-fluoropyridin-2-yl)-1-((cis)-3-hydroxycyclobutyl)-1H-pyrazol-4-yl)-2-(1H-pyrazol-4-yl)thiazole-4-carboxamide], the EC50 in the experiment with IL-23 (p19/p40) (Homo sapiens, 18 h) is 0.0242 µM; with IL-23p19 (Homo sapiens, THP-1, 18 h) it was 0.013 µM.

Regarding `O=C(Nc1cn(CC2CCOCC2)nc1-c1ccccn1)c1csc(-c2cn[nH]c2)n1` [II-45, 2-(1H-pyrazol-4-yl)-N-(3-(pyridin-2-yl)-1-((tetrahydro-2H-pyran-4-yl)methyl)-1H-pyrazol-4-yl)thiazole-4-carboxamide formic acid salt], the EC50 was 0.129 µM with IL-23 (p19/p40) (Homo sapiens, 18 h) and 0.129 µM with IL-23p19 (Homo sapiens, THP-1, 18 h).

Consider `CCO[C@H]1C[C@@H](n2cc(NC(=O)c3ccc(-c4cnn(COP(=O)(O)O)c4)o3)c(-c3ccccn3)n2)C1` [Compound I-35, (4-(5-((1-((1,3-cis)-3-ethoxycyclobutyl)-3-(pyridin-2-yl)-1H-pyrazol-4-yl)carbamoyl)furan-2-yl)-1H-pyrazol-1-yl)methyl phosphate bis-sodium salt], for which the EC50 with IL-23 (p19/p40) (Homo sapiens, 18 h) stood at 0.52 µM; in the experiment on IL-23p19 (Homo sapiens, THP-1, 18 h), 0.0633 µM.

On to `COCCn1cc(NC(=O)c2ccc(-c3cn[nH]c3)o2)c(-c2ccccn2)n1` [Compound I-5, N-(1-(2-methoxyethyl)-3-(pyridin-2-yl)-1H-pyrazol-4-yl)-5-(1H-pyrazol-4-yl)furan-2-carboxamide], for which the EC50 with IL-23 (p19/p40) (Homo sapiens, 18 h) is 0.136 µM; with IL-23p19 (Homo sapiens, THP-1, 18 h), 0.0826 µM.

As usually defined, the EC50 is the concentration at which the effect is half-maximal.
